From patent US20050255493A1, “Molecular targeting of the IGF-1 receptor” (priority 2002, published 2005) come the findings set out here.

This data set has as its system MDA-MB-231 cells. Nature of the data set: Clonogenic survival and post-irradiation survival (SF2) of transfected MDA-MB-231 cells. Conditions: MDA-MB-231, 100 nM. The class given is cell-based, human. The method, then: FIG. 7 A) MDA-MB-231 cells transfected with 100 nM RNA duplexes were serum-starved overnight and treated with 50 nM IGF-I for 30 min. […] Results represent mean±sem of colony counts in triplicate dishes. Similar results were obtained in two further clonogenic assays. • C) Clonogenic survival of transfected MDA-MB-231 cells that were unirradiated or irradiated at 2Gy. The fraction surviving 2Gy irradiation (SF2) is shown as mean±sem of three independent assays.
The effect of transfection with 100 nM ASO4 or siRNA duplexes R4 and R5, equivalent to strongly and weakly hybridizing ASOs respectively, on colony forming efficiency and post-irradiation survival was also evaluated. […] This in turn illustrates the utility of hybridisation to the scanning ASO array in the selection of siRNA reagents, since relative hybridisation to the array is found to be predictive of activity in RNA interference and biological efficacy.

On to “R4: RNAi duplex CAAUGAGUACAACUACCGCTT / TTGUUACUCAUGUUGAUGGCG, SEQ ID NO:30 (CAAUGAGUACAACUACCGCNN; second strand not cited, chemistry not fully specified)”, for which the “Survival after 2Gy irradiation (SF2)” value (2Gy) is “significant inhibition of survival after 2Gy irradiation”. The “Clonogenic survival” value (unirradiated) is listed as “inhibited survival”.
